Laboratory results: patent US10485814B2, “Nicotinamide riboside analogs and pharmaceutical compositions and uses thereof” (GlaxoSmithKline Intellectual Property (No. 2) Limited, priority 2014, dated 2019)
“Also recorded” adds a separate entry of the source.

Key:
Human dermal fibroblasts [1] = assay: UVA-induced gene expression in dermal fibroblasts (QPCR); type: cell-based; conditions: NRH 200 μM for 5 days, UVA 5 or 7.5 J/cm^2
Method: Human dermal fibroblasts were grown in regular culture media as described in example 1 and seeded in 12-well plates at 2×10^5 cells per well for overnight. Before UVA exposure, culture media were removed and PBS (500 μl) was added to each well. Cells were treated with NRH at 200 μM in culture media for 5 days, and only exposed to UVA at 5 J/cm^2 or 7.5 J/cm^2 every other day on day 0 and day 3. The Newport DS-101103 UV Solar Simulator with UV-A-F filter (Sol-UV-A-F) (Newport Corporate) was used as the UVA emitter. Measurement of the irradiation was taken using an ILT-1400-A radiometer/photometer with a UVA probe (SSL001A, international light technologies, Inc.). After UVA exposure, PBS was removed from each well and media with NRH were added to cells. Cells were harvested for RNA isolation after 5 days treatment.

Human dermal fibroblasts [2] = assay: TNFα-induced gene expression in dermal fibroblasts (QPCR); type: cell-based; conditions: 30 hr
Method: Human dermal fibroblasts were grown in regular culture media as described in example 23 above and seeded in 12-well plates at 2×10^5 cells per well for overnight. Cells were then replenished with fresh medium and treated with TNFα (10 ng/ml) with and without NRH (200 μM) for 30 hr. At the end of the incubation, cells were washed once with HBSS with Ca^2+ and Mg^2+ (Life Technologies), and subject to RNA isolation and QPCR analyses.

HaCaT cells = assay: H2O2-induced reactive oxygen species (ROS) in HaCaT cells (CellROX deep red); type: cell-based, human; conditions: 3 hr pre-incubation then 250 μM H2O2, Hydroxyterosol 0.005%, niacinamide 4.5 mM, NRH several concentrations
Method: HaCaT cells were grown as described in example 23 and were seeded in 96-well plates (Nunc™ black with optical bottom, Thermo Fisher Scientific, Inc., Waltham, Mass.) with a density at 2×10^4 cells per well and 100 μl medium in each well, and grown overnight before treatments. Stock solutions of NRH and other test compounds were prepared and diluted to 2× of final treatment concentrations in DMEM medium in 96-well storage plate as indicated in the FIG. 11. HaCaT Cells were treated in triplicates by adding 100 μl of diluted solutions of test compounds (2×) to each well containing 100 μl medium already. Cells were incubated in the presence of test compounds for 3 hrs. At the end of 3 hr incubation, cells were washed once with 200 μl DPBS with Ca^++ and Mg^++ (Life Technologies) and then fed with 100 μl DMEM medium each well containing H2O2 at 250 μM (as a ROS (reactive oxygen species) inducer, Sigma). After 30 min incubation, cells were washed once with 200 μl DPBS with Ca^++ and Mg^++ and CellROX deep red reagent (2.5 mM stock solution, Life Technologies) was added to the medium to a final concentration of 5 μM. After 1 hr incubation at 37° C., 5% CO2, Cells were washed for 3 times with DPBS, fluorescence signal was read at Ex. 640 nm and Em. 665 nm in Biotek Synergy H4 microplate reader (BioTek, Winooski, Vt.). Untreated cells were served as controls (normalized to 1). All the treated samples were normalized to the untreated control.

[3] = Storage in a 93% RH salt chamber; type: physicochemical; conditions: approximately 22° C., approximately 2¼ hours
Method: XRD indicated the sample was amorphous (FIG. 16). A sample of NRH was stored in a 93% RH (relative humidity) salt chamber (at approximately 22° C.) for approximately 2¼ hours. The sample had deliquesced and there was no evidence of crystallization based on XRD analysis.

[4] = Gravimetric Vapor Sorption (GVS); type: physicochemical
Procedure, shortened: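 Samples dried under nitrogen 5 h at 25 °C, then sorption ramp from 5% to 95% or 90% RH and desorption back to 5% or 10% RH, all at 25 °C. Each RH step held 4 h; mass change by microbalance.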

## NC(=O)C1=CN([C@@H]2O[C@H](CO)[C@@H](O)[C@H]2O)C=CC1 [NRH, dihydronicotinamide riboside]
Human dermal fibroblasts [1]
  COX-2 expression compared to UVA alone: reduced; also recorded: decreases
  NQO-1 expression compared to UVA alone: increases
  NRF-2 expression compared to UVA alone: increases
Human dermal fibroblasts [2]; NRH 200 μM
  basal COX-2 gene expression: reduced
  expression level of NRF2: slightly increased
Human dermal fibroblasts [2]; TNFα 10 ng/ml with NRH 200 μM
  TNF-α-induced COX-2 gene expression: reduced
HaCaT cells
  H2O2-induced ROS: dose-dependent inhibitory activities
[3]
  behaviour on storage at high humidity: deliquesced
[4]; 90% RH, 25° C., after drying
  GVS weight gain: greater than 60 % w/w
[4]; GVS isotherm 25° C.
  hygroscopicity by GVS: hygroscopic
